The results in this text go back to patent US6964966B2, “Generation triple-targeting, chiral, broad-spectrum antimicrobial 7-substituted piperidino-quinolone carboxylic acid derivatives, their preparation, compositions and use as medicaments” (Wockhardt Limited, priority 2001, dated 2005).

What all share (type): cell-based
Data set [1] deals with Fluoroquinolone Sensitive Strains. The data set is described as follows: In-vitro antimicrobial test, MIC by two-fold serial agar dilution (NCCLS): fluoroquinolone sensitive strains (Table 17). Here is the method: (§1) The test method was in accordance with the standard NCCLS protocol (Methods for Dilution Antimicrobial Susceptibility Tests for Bacteria that grow Aerobicially, Approved Standards, M7-A5, Fifth Edition, January 2000).
(§2) The antibacterial activities (minimum inhibitory concentration: MIC, mcg/ml) were determined by using the two-fold serial agar dilution method recommended by NCCLS. The media used for preculture and main culture were Tryptic Soya broth (Difco) and Mueller Hinton medium (Difco), respectively. The Mueller Hinton agar was supplemented with 5% sheep blood for streptococci. Overnight cultures were diluted with buffered saline (pH 7.2) to the final cell density of 5×10^6-10^7 CFU/ml, and each bacterial suspension was applied with a replicator (Denley's multipoint inoculator, UK) onto a series of Mueller-Hinton agar plates containing antibacterial agents at various concentrations. Final inoculum was approximately 10^4 CFU/spot. The plates were incubated for 18 hrs at 37° C. The MIC was defined as the lowest concentration of an antibacterial agent that inhibits the development of visible microbial growth on agar.
On the technique in general: Agar dilution tests growth on a series of plates holding different concentrations.

In a further data set the test system is J 744 (mouse macrophage). As to the kind of experiment: Cytotoxicity test (Alamar blue), J 744 cells (Table 23). The settings on record: minimum drug concentration inhibiting Alamar blue color change; 3 hrs drug exposure, then 96 hrs incubation; J 744 mouse macrophage cells. As to the method: (§3) Compounds were evaluated for their cytotoxic potential against two […] viz. […] Freshly grown cells were distributed in microtiter plates at a cell density of 10^5-10^6 cells/well and allowed to adhere and form monolayer by incubating the microtiter plate at 37° C. for 24 hrs. […] Following 3 hrs. of drug exposure, cells were washed with D-MEM and incubated further for 96 hrs. Cytotoxic effects of drugs were monitored through daily microscopic observation and by ascertaining the metabolic status through redox indicator Alamar blue. Healthy actively metabolising cells bring about colour change of Alamar blue from blue to pink within an overnight incubation. Cytotoxic drugs inhibit this reaction resulting into blue coloured wells. Minimum drug concentration inhibiting Alamar blue color change i.e. resulting into blue coloured wells for a given drug is considered cytotoxic concentration.
Background: Alamar Blue is a resazurin reagent that responds to reducing activity.

In data set [2] the test system is V79 (Chinese Hamster Lung). As to the kind of experiment: Cytotoxicity test (Alamar blue), V79 cells (Table 23). The conditions noted are these: minimum drug concentration inhibiting Alamar blue color change, 3 hrs drug exposure, then 96 hrs incubation. Here is the method:
as §3

The test system of data set [3] is Fluoroquinolone-Resistant Strains. The data set is described as follows: In-vitro antimicrobial test, MIC by agar dilution (NCCLS): fluoroquinolone-resistant strains (Table 18). As to the method:
as §1, §2

[4] abbreviates: Escherichia coli, ATCC25922, E. coli ATCC 25922, read-out: MIC, E. coli ATCC 25922.
[5] abbreviates: Staphylococcus aureus, ATCC 25923 / MSSA, MSSA ATCC 25923, read-out: MIC, MSSA ATCC 25923.
[6] abbreviates: Streptococcus pneumoniae, ATCC49619, S. pneumoniae ATCC 49619, read-out: MIC, S. pneumoniae ATCC 49619.

Values after ≈ are worked out from the molar mass of the structure shown. Read-outs that look alike come from different tables or passages of the source.

In the case of `CCc1c(N2CCC(O)C(C)C2)c(F)cc2c(=O)c(C(=O)O)cn(C3CC3)c12` (mixture of isomers) [Compound 100, cis/trans-1-Cyclopropyl-6-fluoro-8-ethyl-7-(4-hydroxy-3-methyl-1-piperidinyl)-1,4-dihydro-4-oxo-quinoline-3-carboxylic acid], in data set [1], the “MIC, E. coli ATCC 25922” value came to 0.8 µg/mL; the “MIC, MSSA ATCC 25923” value is 0.1 µg/mL; the “MIC, S. pneumoniae ATCC 49619” value was determined as 0.8 µg/mL.

Consider `Cc1c(N2CCC(O)CC2)c(F)cc2c(=O)c(C(=O)O)cn(C3CC3)c12` [Compound 83, 1-Cyclopropyl-6-fluoro-8-methyl-7-(4-hydroxy-1-piperidinyl)-1,4-dihydro-4-oxo-quinoline-3-carboxylic acid], for which the MIC in data set [1] (setting [4]) turned out to be 0.05 µg/mL (≈ 0.139 µM); in data set [1] (setting [5]) it was 0.1 µg/mL (≈ 0.277 µM).

As for `Cc1c(N2CCC(N)C(C)(C)C2)c(F)cc2c(=O)c(C(=O)O)cn(C3CC3)c12` (racemic) [Compound 91, (±)1-Cyclopropyl-6-fluoro-1,4-dihydro-8-methyl-7-(4-amino-3,3-dimethyl-1-piperidinyl)-4-oxo-quinoline-3-carboxylic acid], the “Cytotoxic concentration, J 744 Macrophage” value with J 744 (mouse macrophage) came out at 1000 µg/mL. In addition, the “Cytotoxic concentration, V 79 CHL” value in data set [2] was 750 µg/mL.

Turning to `CCNC1CCN(c2c(F)c(N)c3c(=O)c(C(=O)O)cn(C4CC4)c3c2OC)CC1(C)C` (centres unmarked) [Compound 66, 5-Amino-1-cyclopropyl-6-fluoro-1,4-dihydro-8-methoxy-7-(4-ethylamino-3,3-dimethyl-1-piperidinyl)-4-oxo-quinoline-3-carboxylic acid], the minimal inhibitory concentration (MIC) turned out to be 0.2 µg/mL (≈ 0.448 µM) in data set [1] (setting [4]), 0.05 µg/mL (≈ 0.112 µM) in data set [1] (setting [5]) and 0.2 µg/mL (≈ 0.448 µM) in data set [1] (setting [6]).

For the compound `Cc1c(N2CCC(N)C(C)(C)C2)c(F)cc2c(=O)c(C(=O)O)cn(C3CC3)c12` (centres unmarked) [Compound 94, 1-Cyclopropyl-6-fluoro-1,4-dihydro 8-methyl-7-(4-amino-3,3-dimethyl-1-piperidinyl)-4-oxo-quinoline-3-carboxylic acid], the MIC in data set [1] (setting [6]) came to 0.05 µg/mL (≈ 0.129 µM).

Turning to `N[C@@H]1[C@H]2CN(c3nc4c(cc3F)c(=O)c(C(=O)O)cn4-c3ccc(F)cc3F)C[C@@H]12` [Trovafloxacin, reference compound], the “Cytotoxic concentration, J 744 Macrophage” value in the data set with J 744 (mouse macrophage) was 500 µg/mL.

Turning to `COc1c(N2CCC(NC(C)=O)C(C)(C)C2)c(F)c(N)c2c(=O)c(C(=O)O)cn(C3CC3)c12` (centres unmarked) [Compound 61, 5-Amino-1-cyclopropyl-6-fluoro-1,4-dihydro-8-methoxy-7-(4-acetylamino-3,3-dimethyl-1-piperidinyl)-4-oxo-quinoline-3-carboxylic acid], the results for the MIC in data set [1] (setting [4]), in data set [1] (setting [5]) and in data set [1] (setting [6]) were 0.4 µg/mL (≈ 0.869 µM), 0.05 µg/mL (≈ 0.109 µM) and 0.2 µg/mL (≈ 0.434 µM), respectively.

For `CCNC1C(C)CN(c2c(F)cc3c(=O)c(C(=O)O)cn(C4CC4)c3c2OC)CC1C` (centres unmarked) [Compound 39, 1-Cyclopropyl-6-fluoro-1,4-dihydro-8-methoxy-7-(4-ethylamino-3,5-dimethyl-1-piperidinyl)-4-oxo-quinoline-3-carboxylic acid], the results for the MIC in data set [1] (setting [4]), in data set [1] (setting [5]) and in data set [1] (setting [6]) were 6.25 µg/mL (≈ 14.5 µM), 1.56 µg/mL (≈ 3.62 µM) and > 6.25 µg/mL, respectively.

As for `COc1c(N2CC(C)C(O)C(C)C2)c(F)c(N)c2c(=O)c(C(=O)O)cn(C3CC3)c12` (centres unmarked) [Compound 127, 5-Amino-1-cyclopropyl-6-fluoro-1,4-dihydro-8-methoxy-7-(4-hydroxy-3,5-dimethyl-1-piperidinyl)-4-oxo-quinoline-3-carboxylic acid], the minimum inhibitory concentration (MIC) in data set [1] (setting [4]) was 0.4 µg/mL (≈ 0.954 µM); in data set [1] (setting [5]), < 0.006 µg/mL; in data set [1] (setting [6]) it was 0.1 µg/mL (≈ 0.238 µM).

Regarding `Cc1c(N2CCC(N)C(C)(C)C2)c(F)cc2c(=O)c(C(=O)O)cn(C3CC3)c12` (racemic) [Compound 92, (±)-1-Cyclopropyl-6-fluoro-1,4-dihydro-8-methyl-7-(4-amino-3,3-dimethyl-1-piperidinyl)-4-oxo-quinoline-3-carboxylic acid], in data set [1], the “MIC, E. coli ATCC 25922” value stood at 0.05 µg/mL (≈ 0.129 µM) and the “MIC, MSSA ATCC 25923” value was 0.025 µg/mL (≈ 0.0645 µM). In the data set with J 744 (mouse macrophage), the “Cytotoxic concentration, J 744 Macrophage” value is >1000 µg/mL. In addition, in data set [2], the “Cytotoxic concentration, V 79 CHL” value is >1000 µg/mL.

As for `Cc1c(N2CCC(N)C(C)(C)C2)c(F)cc2c(=O)c(C(=O)O)cn(C3CC3)c12` (single isomer, unassigned; (-)) [Compound 93, (−)-1-Cyclopropyl-6-fluoro-1,4-dihydro-8-methyl-7-(4-amino-3,3-dimethyl-1-piperidinyl)-4-oxo-quinoline-3-carboxylic acid], the MIC was 1.56 µg/mL (≈ 4.03 µM) in data set [1] (Pseudomonas aeruginosa, P. aeruginosa 27853, read-out: MIC, P. aeruginosa 27853); 0.4 µg/mL (≈ 1.03 µM) in data set [3] (Staphylococcus aureus, MRSA, MRSA 032, read-out: MIC, MRSA 032); 0.8 µg/mL (≈ 2.06 µM) in data set [3] (Streptococcus mitis, Cipro^R S. mitis 938, read-out: MIC, Cipro^R S. mitis 938); 0.4 µg/mL (≈ 1.03 µM) in data set [3] (Streptococcus pneumoniae, FQ^R S. pneumoniae 718, read-out: MIC, FQ^R S. pneumoniae 718). In addition, in the data set on J 744 (mouse macrophage), the “Cytotoxic concentration, J 744 Macrophage” value came out at 1000 µg/mL. The “Cytotoxic concentration, V 79 CHL” value in data set [2] is 250 µg/mL.

As for `COc1c(N2CCC(O)C(C)C2)c(F)c(N)c2c(=O)c(C(=O)O)cn(C3CC3)c12` (centres unmarked) [Compound 116, 5-Amino-1-cyclopropyl-6-fluoro-1,4-dihydro-8-methoxy-7-(4-hydroxy-3-methyl-1-piperidinyl)-4-oxo-quinoline-3-carboxylic acid], the MIC worked out at 0.4 µg/mL (≈ 0.987 µM) in data set [1] (setting [4]), 0.025 µg/mL (≈ 0.0617 µM) in data set [1] (setting [5]) and 0.2 µg/mL (≈ 0.493 µM) in data set [1] (setting [6]).

For `Cc1c(N2CC[C@@H](N)[C@H](C)C2)c(F)cc2c(=O)c(C(=O)O)cn(C3CC3)c12` (relative stereo) [Compound 89, trans-1-Cyclopropyl-6-fluoro-1,4-dihydro-8-methyl-7-(4-amino-3-methyl-1-piperidinyl)-4-oxo-quinoline-3-carboxylic acid], the “Cytotoxic concentration, J 744 Macrophage” value with J 744 (mouse macrophage) amounted to 1000 µg/mL. Further, the “Cytotoxic concentration, V 79 CHL” value in data set [2] amounted to 250 µg/mL.

For `Cc1c(N2CC[C@H](N)[C@H](C)C2)c(F)c(N)c2c(=O)c(C(=O)O)cn(C3CC3)c12` (relative stereo) [Compound 111, cis-1-5-Amino-1-cyclopropyl-6-fluoro-1,4-dihydro-8-methyl-7-(4-amino-3-methyl-1-piperidinyl)-4-oxo-quinoline-3-carboxylic acid], in data set [1], the “MIC, E. coli ATCC 25922” value is 1.56 µg/mL (≈ 4.02 µM) and the “MIC, MSSA ATCC 25923” value came out at 0.8 µg/mL (≈ 2.06 µM).

As for `Cc1c(N2CC[C@H](N)[C@H](C)C2)c(F)cc2c(=O)c(C(=O)O)cn(C3CC3)c12` (relative stereo) [Compound 90, cis-1-Cyclopropyl-6-fluoro-1,4-dihydro-8-methyl-7-(4-amino-3-methyl-1-piperidinyl)-4-oxo-quinoline-3-carboxylic acid], in the data set with J 744 (mouse macrophage), the “Cytotoxic concentration, J 744 Macrophage” value stood at 1000 µg/mL. The “Cytotoxic concentration, V 79 CHL” value in data set [2] was determined as 125 µg/mL.

For `COc1c(N2CCC(N)C(C)(C)C2)c(F)cc2c(=O)c(C(=O)O)cn(-c3ccc(F)cc3F)c12` (centres unmarked) [Compound 17, 1-(2,4-Difluorophenyl)-6-fluoro-1,4-dihydro-8-methoxy-7-(4-amino-3,3-dimethyl-1-piperidinyl)-4-oxo-quinoline-3-carboxylic acid], the MIC in data set [1] (setting [4]) worked out at 0.4 µg/mL (≈ 0.841 µM); in data set [1] (setting [5]), 0.4 µg/mL (≈ 0.841 µM); in data set [1] (setting [6]) it was 1.56 µg/mL (≈ 3.28 µM).

With `COc1c(N2CCC(O)C(C)(C)C2)c(F)c(N)c2c(=O)c(C(=O)O)cn(C3CC3)c12` (centres unmarked) [Compound 125, 5-Amino-1-cyclopropyl-6-fluoro-1,4-dihydro-8-methoxy-7-(4-hydroxy-3,3-dimethyl-1-piperidinyl)-4-oxo-quinoline-3-carboxylic acid], the MIC in data set [1] (setting [4]) is 1.56 µg/mL (≈ 3.72 µM); in data set [1] (setting [5]), 0.025 µg/mL (≈ 0.0596 µM); in data set [1] (setting [6]) it was 0.4 µg/mL (≈ 0.954 µM).

Consider `CC[C@@H]1CN(c2c(F)cc3c(=O)c(C(=O)O)cn(C4CC4)c3c2C)CC[C@H]1O` (relative stereo) [Compound 88, cis/trans-1-Cyclopropyl-6-fluoro-8-methyl-7-(4-hydroxy-3-ethyl-1-piperidinyl)-1,4-dihydro-4-oxo-quinoline-3-carboxylic acid], for which, in data set [1], the “MIC, E. coli ATCC 25922” value was determined as 0.4 µg/mL (≈ 1.03 µM); the “MIC, MSSA ATCC 25923” value was determined as 0.012 µg/mL (≈ 0.0309 µM); the “MIC, S. pneumoniae ATCC 49619” value came to 0.1 µg/mL (≈ 0.257 µM). Also, the “MIC, E. faecalis ATCC 29212” value in data set [1] (E. faecalis ATCC 29212) was determined as 0.2 µg/mL (≈ 0.515 µM). The “MIC, P. aeruginosa 27853” value in data set [1] (P. aeruginosa 27853) was 12.5 µg/mL (≈ 32.2 µM). Besides, the “MIC, S. sanguis ATCC 10556” value in data set [1] (S. sanguis ATCC 10556 (Viridans Streptococci)) worked out at 0.2 µg/mL (≈ 0.515 µM). The “MIC, Cipro^R S. mitis 938” value in data set [3] (Cipro^R S. mitis 938) was 3.12 µg/mL (≈ 8.03 µM). In addition, the “MIC, Cipro^R S. sanguis 941” value in data set [3] (Cipro^R S. sanguis 941) worked out at 3.12 µg/mL (≈ 8.03 µM). The “MIC, FQ^R S. pneumoniae 718” value in data set [3] (FQ^R S. pneumoniae 718) came out at 3.12 µg/mL (≈ 8.03 µM). Moreover, the “MIC, MRSA 032” value in data set [3] (MRSA 032) came out at 0.8 µg/mL (≈ 2.06 µM).

Broadly, the MIC is the least concentration at which growth counts as inhibited.
